Measurements from the CheMixHub ionic liquid set.

Assay: xn = mol fraction of the nth substance listed

CCCCCCCCn1cc[n+](C)c1.O=[N+]([O-])[O-] + CCCCO
101 kPa
Conditions	viscosity [mPa·s]
283.15 K, x2 = 0.168	770
293.15 K, x2 = 0.358	137
293.15 K, x2 = 0.57	38.5
293.15 K, x2 = 0.676	20.63
293.15 K, x2 = 0.848	7.8
298.15 K, x2 = 0.458	59.3
298.15 K, x2 = 0.57	31.8
298.15 K, x2 = 0.848	6.79
303.15 K, x2 = 0.458	47.9
303.15 K, x2 = 0.676	14.91
308.15 K, x2 = 0.358	64.5
308.15 K, x2 = 0.676	12.81
313.15 K, x2 = 0.168	123
313.15 K, x2 = 0.358	52.2
318.15 K, x2 = 0.358	42.8
323.15 K, x2 = 0.458	23.19
323.15 K, x2 = 0.57	14.15
323.15 K, x2 = 0.676	8.67
323.15 K, x2 = 0.848	3.61
328.15 K, x2 = 0.458	17.18

CCCC[n+]1ccn(C)c1.O=S(=O)([O-])C(F)(F)F + CCCCO
viscosity [mPa·s], 100 kPa
Conditions	x1 = 0.1091	x1 = 0.2147	x1 = 0.2908	x1 = 0.4008	x1 = 0.5123	x1 = 0.5928	x1 = 0.6991	x1 = 0.8056	x1 = 0.9078	x1 = 1
298.15 K	3.69	6.2	8.9	14.2	20.6	26	35.4	47.6	63	82
303.15 K	3.24	5.1	6.9	11.5	17.5	22.6	30.2	38.8	51	67
308.15 K	2.87	4.45	6	11	15.3	19.3	25.4	32	40.6	53
313.15 K	2.55	3.93	5.3	9.5	13.6	16.9	21.6	27.2	34.7	43.7
318.15 K	2.27	3.48	4.68	7.9	11.2	13.8	17.8	22.6	28.5	36.3
323.15 K	2.04	3.11	4.17	7.2	10.1	12.4	15.8	19.3	24.4	30.6

CCCCCCCCn1cc[n+](C)c1.F[B-](F)(F)F + CCCCOC(C)=O
298.15 K, 101 kPa
Conditions	viscosity [mPa·s]
x2 = 0.114	187
x2 = 0.4512	34.1
x2 = 0.9065	1.76

FC(F)C(F)(F)OCC(F)(F)C(F)(F)C(F)(F)C(F)F + CCCC[N+]1(C)CCCC1.FC(F)(F)C(F)(F)[P-](F)(F)(F)(C(F)(F)C(F)(F)F)C(F)(F)C(F)(F)F
101 kPa
Conditions	electrical conductivity [S/m]	viscosity [mPa·s]
298.1 K, x2 = 0	–	2.5
298.1 K, x2 = 0.12	0.18	–
298.1 K, x2 = 0.191	–	7.43
298.1 K, x2 = 0.194	0.257	–
298.1 K, x2 = 0.272	0.28	–
298.1 K, x2 = 0.363	0.306	–
298.1 K, x2 = 0.454	0.291	–
298.1 K, x2 = 0.456	–	25.4
298.1 K, x2 = 0.564	0.241	–
298.1 K, x2 = 0.694	0.182	65.6
298.1 K, x2 = 0.847	–	117.9
298.1 K, x2 = 0.853	0.161	–
303 K, x2 = 0.12	0.199	–
303 K, x2 = 0.123	–	4.63
303 K, x2 = 0.194	0.29	–
303 K, x2 = 0.269	0.32	–
303 K, x2 = 0.359	0.35	–
303 K, x2 = 0.361	–	14.13
303 K, x2 = 0.457	0.335	–
303 K, x2 = 0.567	0.288	32.7
303 K, x2 = 0.694	0.23	–
303 K, x2 = 0.847	–	91.9
303 K, x2 = 0.85	0.198	–
308.1 K, x2 = 0	–	2.12
308.1 K, x2 = 0.123	0.217	–
308.1 K, x2 = 0.191	0.32	–
308.1 K, x2 = 0.272	0.36	–
308.1 K, x2 = 0.273	–	8.09
308.1 K, x2 = 0.366	0.401	–
308.1 K, x2 = 0.456	–	17.2
308.1 K, x2 = 0.463	0.39	–
308.1 K, x2 = 0.564	0.343	–
308.1 K, x2 = 0.691	0.27	–
308.1 K, x2 = 0.847	0.234	71.6
313 K, x2 = 0.058	–	2.88
313 K, x2 = 0.123	0.239	–
313 K, x2 = 0.197	0.356	–
313 K, x2 = 0.272	0.412	–
313 K, x2 = 0.359	0.449	–
313 K, x2 = 0.361	–	11.01
313 K, x2 = 0.46	0.442	–
313 K, x2 = 0.57	0.387	–
313 K, x2 = 0.691	0.322	–
313 K, x2 = 0.694	–	33.7
313 K, x2 = 0.847	–	60.6
313 K, x2 = 0.85	0.289	–
318.1 K, x2 = 0	–	1.65
318.1 K, x2 = 0.12	–	3.41
318.1 K, x2 = 0.123	0.261	–
318.1 K, x2 = 0.194	0.389	–
318.1 K, x2 = 0.271	0.452	–
318.1 K, x2 = 0.362	0.5	–
318.1 K, x2 = 0.45	0.504	–
318.1 K, x2 = 0.456	–	13.04
318.1 K, x2 = 0.567	0.449	–
318.1 K, x2 = 0.69	0.373	–
318.1 K, x2 = 0.691	–	27.8
318.1 K, x2 = 0.844	–	49.9
318.1 K, x2 = 0.846	0.337	–
323 K, x2 = 0	–	1.52
323 K, x2 = 0.119	0.283	–
323 K, x2 = 0.19	0.43	–
323 K, x2 = 0.195	–	4.04
323 K, x2 = 0.271	0.5	–
323 K, x2 = 0.358	–	7.89
323 K, x2 = 0.359	0.558	–
323 K, x2 = 0.453	0.566	–
323 K, x2 = 0.563	0.508	–
323 K, x2 = 0.567	–	15.44
323 K, x2 = 0.69	0.424	–
323 K, x2 = 0.846	0.392	–
323 K, x2 = 0.848	–	40
